Experimental data as given in patent US9980943B2, “Methods of treating muscular dystrophy” (BOARD OF REGENTS OF THE NEVADA SYSTEM OF HIGHER EDUCATION, …, priority 2013, dated 2018).

Key:
Assay type in all cases: cell-based, mouse
[1] = system: α7 integrin (LacZ reporter in α7βgal+/− myoblasts); assay: Myoblast α7+/LacZ integrin FDG assay (Burkin assay in myoblasts, 96-well); conditions: α7+/LacZ myoblasts, 96-well
[2] = system: β-galactosidase in CMV-LacZ C2C12 myotubes; assay: CMV-LacZ secondary screen in C2C12 myotubes (β-Gal stabilizing assay); conditions: for CMV-LACZ in Myotubes (β-galactosidase activity relative to DMSO): CMV-LacZ C2C12 myotubes, 96-well format; for CMV-LACZ in Myotubes, signal relative to DMSO: C2C12 CMV-LacZ myotubes, fold relative to DMSO
Outline: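 Stable CMV-LacZ C2C12 clone; six-point curve 0.5–40 μM; duplicates.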

[3] = system: α7 integrin (LacZ reporter in α7+/LacZ myotubes); assay: Myotube α7 integrin FDG assay (Burkin assay in myotubes, 96-well); conditions: myotubes

| Compound | Burkin Assay in Myoblasts, value relative to DMSO ([1]; 0.5 uM) | Burkin Assay in Myoblasts, value relative to DMSO ([1]; 1 uM) | Burkin Assay in Myoblasts, value relative to DMSO ([1]; 5 uM) | Burkin Assay in Myoblasts, value relative to DMSO ([1]; 10 uM) | Burkin Assay in Myoblasts, value relative to DMSO ([1]; 20 uM) | Burkin Assay in Myoblasts, value relative to DMSO ([1]; 40 uM) | CMV-LACZ in Myotubes (β-galactosidase activity relative to DMSO) ([2]; 5 uM) | CMV-LACZ in Myotubes (β-galactosidase activity relative to DMSO) ([2]; 10 uM) | CMV-LACZ in Myotubes (β-galactosidase activity relative to DMSO) ([2]; 20 uM) | CMV-LACZ in Myotubes (β-galactosidase activity relative to DMSO) ([2]; 40 uM) | Burkin Assay in Myotubes (signal relative to DMSO) ([3]; 0.5 uM) | Burkin Assay in Myotubes (signal relative to DMSO) ([3]; 1 uM) | Burkin Assay in Myotubes (signal relative to DMSO) ([3]; 5 uM) | Burkin Assay in Myotubes (signal relative to DMSO) ([3]; 10 uM) | Burkin Assay in Myotubes (signal relative to DMSO) ([3]; 20 uM) | Burkin Assay in Myotubes (signal relative to DMSO) ([3]; 40 uM) | CMV-LACZ in Myotubes, signal relative to DMSO ([2]; 5 uM) | CMV-LACZ in Myotubes, signal relative to DMSO ([2]; 10 uM) | CMV-LACZ in Myotubes, signal relative to DMSO ([2]; 20 uM) | CMV-LACZ in Myotubes, signal relative to DMSO ([2]; 40 uM) | other results |
| --- | --- | --- | --- | --- | --- | --- | --- | --- | --- | --- | --- | --- | --- | --- | --- | --- | --- | --- | --- | --- | --- |
| CCOc1cc(/C=C2\C(=O)ON=C2c2ccccc2)ccc1OC [MLS001196946-01] | 0.9541 | 0.9798 | 0.7989 | 0.6188 | 0.1194 | 0.08385 | 0.9817 | 1.13 | 2.7886 | 3.9614 | 0.9942 | 1.113 | 1.002 | 0.9469 | 0.5465 | 0.2832 |  |  |  |  |  |
| CC1(C)CC(=O)C=C(Nc2ccc(C(=O)O)c(O)c2)C1 [MLS001198693-01] |  |  |  |  |  |  |  |  |  |  |  |  |  |  |  |  | 1.092 | 0.9258 | 1.025 | 1.112 | Burkin Assay in Myoblasts, signal relative to DMSO ([1]; 0.5 uM): 0.9617; Burkin Assay in Myoblasts, signal relative to DMSO ([1]; 1 uM): 0.5426; Burkin Assay in Myoblasts, signal relative to DMSO ([1]; 5 uM): 0.9229; Burkin Assay in Myoblasts, signal relative to DMSO ([1]; 10 uM): 0.9137; Burkin Assay in Myoblasts, signal relative to DMSO ([1]; 20 uM): 0.9351; Burkin Assay in Myoblasts, signal relative to DMSO ([1]; 40 uM): 0.9164; Burkin Assay in Myotubes, α7 integrin LacZ reporter signal relative to DMSO ([3]; 0.5 uM): 0.96; Burkin Assay in Myotubes, α7 integrin LacZ reporter signal relative to DMSO ([3]; 1 uM): 0.9048; Burkin Assay in Myotubes, α7 integrin LacZ reporter signal relative to DMSO ([3]; 5 uM): 1.011; Burkin Assay in Myotubes, α7 integrin LacZ reporter signal relative to DMSO ([3]; 10 uM): 0.9514; Burkin Assay in Myotubes, α7 integrin LacZ reporter signal relative to DMSO ([3]; 20 uM): 0.9319; Burkin Assay in Myotubes, α7 integrin LacZ reporter signal relative to DMSO ([3]; 40 uM): 1.116 |
| COc1ccc(CNC(=O)CCN2C(=O)c3ccccc3C2=O)cc1 [MLS001200980-01] | 0.9918 | 0.9255 | 1.055 | 0.9544 | 0.9561 | 0.9201 |  |  |  |  | 1.0669 | 1.022 | 1.121 | 1.216 | 1.015 | 0.9712 | 0.8782 | 0.9568 | 0.9272 | 1.0886 |  |
| O=C(Nc1cc(Br)ccc1O)C1CC(c2ccccc2Cl)=NO1 (stereo not shown) [MLS001202627-01] | 1.172 | 1.081 | 0.9923 | 0.7739 | 0.5427 | 0.2179 | 0.9234 | 0.9555 | 0.9345 | 0.735 | 0.9687 | 0.7692 | 1.025 | 0.8124 | 0.9394 | 0.2335 |  |  |  |  |  |
